Patent US20160271258A1, “Dual Peptide-Mediated Targeted Delivery System” (MUSC FOUNDATION FOR RESEARCH DEVELOPMENT, priority 2015, published 2016)
Entries after “also recorded” stand apart in the source; their conditions may differ. Where no end group is shown, it is not given here. [ ]: non-standard residue; d: D form.

How the values were obtained:
[1] = test system: CIP2A; assay: Western blot analysis of CIP2A protein expression levels in CAL 27 OSCC cells; format: cell-based, human; details: CAL 27 cells, 48 hours post-treatment, 100 nM siCIP2A vs siNT
Description: Western blot analysis of CIP2A protein expression levels in CAL 27 OSCC cells was performed 48 hours post-treatment with GE11R9 peptide complexed to either 100 nM of siNT or siCIP2A at a 60:1 or 100:1 peptide-to-siRNA molar ratio compared to 599 peptide at a 50:1 molar ratio. β-Actin protein levels were monitored to ensure equal loading of samples.
FIG. 4 is a Western blot analysis of CIP2A protein expression levels in CAL 27 OSCC cells performed 48 hours post-treatment with dual peptide complexed to either 100 nM of siNT or siCIP2A at various GE11R9:599:siRNA molar ratios. β-Actin protein levels were monitored to ensure equal loading of samples.

[2] = test system: CAL 27 (high EGFR) and SCC-15 (low EGFR) oral cancer cells; assay: Fluorescence microscopy of DY547-siCIP2A uptake in co-culture of high- and low-EGFR oral cancer cells; format: cell-based, human; details: co-culture CAL 27 and SCC-15, 4 hours, 100 nM D-siCIP2A
Description: (§1) Fluorescence microscopy analysis was performed after co-culture of CAL 27 (high EGFR) and SCC-15 (low EGFR) oral cancer cells incubated for 4 hours with 100 nM of DY547-conjugated siRNA targeting CIP2A (D-siCIP2A; red) in complex with GE11R9 peptide at 100:1 and 60:1 (GE11R9:siRNA) molar ratios. SCC-15 cells were stained for vimentin (green) and nuclei (blue) were counterstained with DAPI.
as §1, with “of the” for “was performed after”, “and 599 peptides” for “peptide”, “various” for “100:1 and 60:1 (GE11R9:siRNA)”, “ratios (FIGS. 3A & 3B).” for “ratios.”, “DAPI” for “DAPI.”

## GE11R9: EGFR-targeting peptide: GE11 sequence modified with a nona(D-arginine) stretch (R9) and a C-terminal Lysine (YHWYGYTPQNVIGGGG[dR][dR][dR][dR][dR][dR][dR][dR][dR]K)
[1]
  delivery of bioactive siRNA (siCIP2A functionality, CIP2A protein expression): not capable of mediating the delivery of bioactive siRNAs; also recorded: does not deliver bioactive siRNAs; also recorded: not able to mediate the delivery of bioactive siRNAs
[2]
  targeting / specific uptake of siRNA into high-EGFR versus low-EGFR cells: deliver siRNAs specifically to EGFR-overexpressing oral cancer cells; also recorded: specifically targets
